# Experimental data published in patent US8207136B2, “Nucleoside compounds and methods of use thereof” (The Board of Trustees of the University of Illinois, priority 2005, dated 2012).
# Read-outs that look alike come from different tables or passages of the source. Starred links: 1 amine or outer side, 2 acyl side, 3 side chain; linkers in the order of their positions; H or OH if unused. Positions of bridges follow the written chain, without caps; N, C: chain ends. Non-standard residues stand in square brackets, D forms with d. Residues, ends and D or L forms follow the SMILES beside them. Chains are numbered I, II in the order given. Actinocin(9to1) = Cc1c2oc3c(C)ccc(C(=O)[*:1])c3nc-2c(C(=O)[*:2])c(N)c1=O; NMeV = CN[C@H](C(=O)O)C(C)C; Sar = CNCC(=O)O
# How the values were obtained:
# RNA polymerase II = molecular target: T1, RNA polymerase II (Homo sapiens, UniProt P24928); experiment: Nuclear run-on assay, nuclei isolated from untreated HCT-116 cells then treated; assay type: biochemical; conditions: 50 μM ARC, 50 μM DRB or 2 μg/ml α-amanitin
# T1 construct: nuclei were isolated from normally growing untreated HCT-116 cells and treated with each of these agents; endogenous in cells; host or cells: nuclei of HCT-116 colon cancer cells
# Procedure: (§1) Run-on assays with isolated nuclei were performed as described. Briefly, cells treated with the indicated agents were lysed with hypotonic buffer (10 mM Tris-HCl pH 7.4, 10 mM NaCl and 35 mM MgCl2) and nuclei collected by centrifugation and resuspended in nuclear storage buffer (50 mM HEPES pH 8.0, 5 mM MgCl2, 0.5 mM DTT, 1 mg/ml BSA and 25% (v/v) glycerol) at about 5×10^8 nuclei/ml and stored at −80° C. Transcription reactions were performed in 200 μl volume consisting of 1×10^7 nuclei in the presence of 0.12 M KCl, 7 mM Mg(Ac)2, 25 μCi of [^32P]GTP, 500 μM ATP, UTP and CTP at 30° C. Samples were collected at various time points (18 μl/time point—0, 5, 10, 20 and 30 min) and the reaction terminated by the addition of 57 μl of Sarkosyl solution (1% Sarkosyl, 0.1 M Tris pH 8.0, 0.1 M NaCl, 10 mM EDTA and 200 μg/ml tRNA). The stopped reactions were transferred to Whatman DE81 paper, and washed four times with wash buffer (5% K2HPO4 and 0.3% Na4P2O7) for 10 min, followed by a 5-min water wash. Then the paper was briefly rinsed with 95% ethanol and allowed to dry completely. Radiation was quantitated using a liquid scintillation counter.
# In order to evaluate the ability of ARC to bind to and inhibit RNA polymerase II directly (like α-amanitin) or indirectly (like DRB), nuclei were isolated from normally growing untreated HCT-116 cells and treated with each of these agents, and then assayed for rate of transcription by nuclear run-on assay.
# [1] = test system: RNA polymerase II transcription; experiment: Nuclear run-on assay, nuclei from treated HCT-116 cells; assay type: cell-based, human; conditions: HCT-116 cells treated 2 hours with 1 mM
# Procedure: as §1
# Some transcriptional inhibitors such as DRB and flavopiridol repress p21 and hdm2 while increasing p53 levels. […] To evaluate this activity, HCT-116 cells were treated with one of DMSO (control), ARC or DRB, and nuclei were isolated. These nuclei were assayed for rate of transcription either in the presence or absence of α-amanitin using the nuclear run-on assay. […] If ARC inhibits polymerase I and III transcription, the rate of transcription should be substantially lower in the ARC+α-amanitin (FIG. 2A; curve 5) when compared with DMSO+α-amanitin (FIG. 2A; curve 4). However both of these rates of transcription were similar, implying that ARC might preferentially affect only RNA polymerase II transcription.
# [2] = test system: LIM1215 colon cancer cells; experiment: Apoptosis by PI staining and flow cytometry in LIM1215 cells; assay type: cell-based, human; conditions: 50 μM, 48 hours
# Procedure: For Flow Cytometry, cells were fixed in 70% ethanol and stored at −20° C. until further analysis. Equal numbers of fixed cells were then stained with PI solution (0.1% Triton X-100, 0.2 mg/ml DNase free RNase, 0.02 mg/ml propidium iodide) made in PBS for 15 min at 37° C. and analyzed by a flow cytometer.
# In order to evaluate the extent to which ARC induces apoptosis relative to that of the other known nucleoside analog DRB, LIM1215 colon cancer cells were treated with either ARC or DRB for 48 hours.
# HUVECs [3] = conditions: literature value [28]; read-out: IC50, cord formation; cited from earlier work
# HUVECs [4] = conditions: literature value [28]; read-out: IC50, cell motility; cited from earlier work
# p53 = experiment: Gel shift assay with nuclear extracts and p53 consensus probe; assay type: cell-based, human; conditions: MCF-7 nuclear extracts
# Procedure: Either purified p53 protein or nuclear extracts were used in the gel shift assays. For preparation of nuclear extracts, cells treated either with DMSO or different agents (doxorubicin, ARC and actinomycin D) were harvested 24 hours later and lysed in hypotonic buffer (10 mM HEPES pH 7.9, 1.5 mM MgCl2, 10 mM KCl, 0.2 mM PMSF, 0.5 mM DTT, 1 mM Na3VO4, 1 mM NaF, 1 mM Aprotinin and 1 mM Leupeptin), nuclei pelleted and treated with high-salt buffer (20 mM HEPES pH 7.9, 20% (v/v) glycerol, 1.5 mM MgCl2, 0.5 M KCl, 0.2 mM EDTA, 0.2 mM PMSF, 0.5 mM DTT, 1 mM Na3VO4, 1 mM NaF, 1 mM Aprotinin and 1 mM Leupeptin). Nuclear extracts (10 μg) or purified p53 protein (100 ng) were incubated with 0.5 ng of p53 consensus double-stranded oligos (5′-TACAGAACATGTCTAAGCATGCTGGGGACT-3′; Santa Cruz Biotechnology) that were labeled with [γ^32P]ATP. As a control, anti-p53 antibody (PAb421, EMD Biosciences) was used to supershift the p53/DNA complex. The reaction mixtures were resolved on a 4% acrylamide DNA-retardation gel, dried and exposed to X-ray film in the presence of intensifying screen.
# Although the effects of ARC were p53-independent, ARC did affect some properties of p53. […] This is in contrast to actinomycin D, which is known to enhance the DNA binding ability of p53 [22]. […] To determine if ARC retains p53 in the cytoplasm, which may lead to decreased binding in the gel shift assays, p53 levels in nuclear lysates were examined.
smiles,measurement,setting,value
CC[C@H](C)[C@@H]1NC(=O)CNC(=O)[C@@H]2Cc3c([nH]c4cc(O)ccc34)[S+]([O-])C[C@@H](NC(=O)CNC1=O)C(=O)N[C@@H](CC(N)=O)C(=O)N1C[C@H](O)C[C@H]1C(=O)N[C@@H]([C@@H](C)[C@@H](O)CO)C(=O)N2 (stereo in doubt) [α-amanitin],"rate of transcription, agent added to isolated nuclei",RNA polymerase II,dramatically inhibited transcription
"OC[C@H]1O[C@@H](n2cnc3cc(Cl)c(Cl)cc32)[C@H](O)[C@@H]1O [DRB, 5,6-Dichloro-1-β-ribofuranosylbenzimidazole, reference compound]","rate of transcription, agent added to isolated nuclei",RNA polymerase II,did not affect the rate of transcription
same,rate of transcription versus control nuclei,[1],lower
same,"apoptosis (PI staining, flow cytometry)",[2],23.4%
CO[C@@H]1[C@H](OC(=O)NC(=O)CCl)CC[C@]2(CO2)[C@H]1[C@@]1(C)O[C@@H]1CC=C(C)C [TNP-470],IC50,HUVECs [3],~700 nM
same,IC50,HUVECs [4],~600 nM
"Cc1c2oc3c(C)ccc(C(=O)N[C@@H]4C(=O)N[C@H](C(C)C)C(=O)N5CCC[C@H]5C(=O)N(C)CC(=O)N(C)[C@@H](C(C)C)C(=O)O[C@@H]4C)c3nc-2c(C(=O)N[C@@H]2C(=O)N[C@H](C(C)C)C(=O)N3CCC[C@H]3C(=O)N(C)CC(=O)N(C)[C@@H](C(C)C)C(=O)O[C@@H]2C)c(N)c1=O [actinomycin D, reference compound] (I: T[dV]P[Sar][NMeV] / II: T[dV]P[Sar][NMeV]; ester I:1-I:C, II:1-II:C; linker I:N-II:N via Actinocin(9to1))","DNA binding ability of p53, agent alone",p53,increased the DNA binding ability of p53
